Laboratory results as given in PMC3320733 (International Journal of Antimicrobial Agents, 2012).
Where no end group is shown, it is not given here.

How the values were obtained:
Assay type in all cases: cell-based
[1] = tested on: Pseudomonas aeruginosa PAO1
human red blood cells = assay: Haemolytic effects on human red blood cells; conditions: 1 h
Bacillus subtilis 168 = tested on: Bacillus subtilis 168

FFGKVLKLIRKIF-NH2 [DASamP1]
MIC Pseudomonas aeruginosa [1]: >100 µM
HL50 (concentration at which 50% of red blood cells were lysed) (human red blood cells): 25 µM
MIC Bacillus subtilis (Bacillus subtilis 168): >100 µM

FFHHIFRGIVHVGKTIHRLVTG [Piscidin 1] [listing 1 of 2 here]
MIC Pseudomonas aeruginosa [1]: 50 µM
MIC Bacillus subtilis (Bacillus subtilis 168): 12.5 µM

FFHHIFRGIVHVGKTIHRLVTG [Piscidin 1] [listing 2 of 2 here]
HL50 (concentration at which 50% of red blood cells were lysed) (human red blood cells): 20 µM

GFKDLLKGAAKALVKTVLF-NH2 [Ascaphin-8]
MIC Pseudomonas aeruginosa [1]: 12.5 µM
HL50 (concentration at which 50% of red blood cells were lysed) (human red blood cells): 45 µM
MIC Bacillus subtilis (Bacillus subtilis 168): 6.25 µM

GLLGLLGSVVSHVVPAIVGHF-NH2 [Maculatin 1.3] [listing 1 of 2 here]
MIC Pseudomonas aeruginosa [1]: >100 µM
MIC Bacillus subtilis (Bacillus subtilis 168): 25 µM

GLLGLLGSVVSHVVPAIVGHF-NH2 [Maculatin 1.3] [listing 2 of 2 here]
HL50 (concentration at which 50% of red blood cells were lysed) (human red blood cells): 25 µM
